Each block holds one compound with its values, some of them ahead of it.
What was measured:
[1] = molecular target: T1, Glucocorticoid Receptor (GR) (Homo sapiens, UniProt P04150); assay: Cell based GR responsive luciferase reporter assay in HEK293/UASLuc/pBIND-GR cells; details: for EC50: HEK293/UASLuc/pBIND-GR cells, 48 hours; for EC50 values after spacer attachment relative to parent steroid: comparison
T1 construct: host or cells: HEK293 stably expressing human full length PRLR
T1 sequence (P04150 524-758 limits assumed): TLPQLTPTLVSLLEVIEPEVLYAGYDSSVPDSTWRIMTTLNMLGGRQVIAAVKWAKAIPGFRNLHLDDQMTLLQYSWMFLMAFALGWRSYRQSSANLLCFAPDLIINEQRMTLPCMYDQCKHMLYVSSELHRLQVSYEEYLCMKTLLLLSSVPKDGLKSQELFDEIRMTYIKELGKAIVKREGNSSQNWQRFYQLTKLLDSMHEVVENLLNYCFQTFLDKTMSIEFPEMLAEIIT
From the text: A cell-based GR responsive luciferase reporter assay was used to test the GR agonist activity of compounds described herein. In this assay, the following materials were used.
To generate the assay cell line, HEK293 cells were co-transfected with the pBind-GR (Promega, Cat #E158A) and pGL4.35 [Luc2P/9xGAL4UAS/Hygro] (Promega, Cat #E137A) vectors. The pBind-GR vector expresses a fusion protein consisting of the yeast Gal4DNA-binding domain and the GR ligand binding domain, that can bind to the Gal4 upstream activation sequence (UAS) in the luciferase expression vector and induce luciferase expression following GR agonist binding. The cells were selected for at least 2 weeks in G418+ hygromycin. The resulting cell line is referred to as HEK293/UASLuc/pBIND-GR.
Three-fold serial dilutions of test compounds were prepared in 100% DMSO, transferred to fresh assay media, and added to the cells. […] The last well in the plate served as blank control containing only the assay media and 0.2% DMSO (untreated well) and was plotted as a continuation of the 3-fold serial dilution.
Forty-eight hours later, luciferase activity was determined after the addition of One-Glo™ reagent (Promega, Cat #E6130). Relative light units (RLUs) were measured on an Envision luminometer (PerkinElmer) and EC50 values were determined using a four-parameter logistic equation over a 10-point dose response curve (GraphPad Prism). The signal to noise (S/N) was determined by taking the ratio of the highest RLU on the dose response curve to the RLU in the untreated wells.

[2] = molecular target: T1, Glucocorticoid Receptor (GR); assay: as above; details: ratio of highest RLU on the dose response curve to RLU in untreated wells, 48 hours
[3] = Plasma stability in human plasma; type: in vitro ADME; details: 37° C.; for Percent Remaining (%) 1 h / Percent Remaining (%) 8 h / Percent Remaining (%) 24 h / Percent Remaining (%) […]: BQL: Below Quantitation Limit
Method: Plasma stability can be measured according to the following protocol.
Preheated 0.05 M sodium phosphate and 0.07 M NaCl buffer, pH 7.4: 14.505 g/L Na2HPO4_12H2O, 1.483 g/L NaH2PO4_2H2O and 4.095 g/L NaCl were dissolved in deionized water. The basic solution was then titrated with the phosphoric acid to pH 7.40 and stored refrigerated for up to 7 days. pH was checked on the day of experiment and adjusted if outside specification of 7.4+/−0.1.
Plasma preparation: frozen plasma were thawed by placing at 37° C. The plasma was centrifuged at 3,000 rpm for 8 minutes to remove clots, pipetted and the supernatant was pooled as the plasma to be used in the experiment. The pH of the plasma was checked and recorded and only used within the range of pH 7.4 to pH 8. If higher than pH 8, the plasma was discarded. The initial pH of the plasma was not adjusted to pH 7.4 with acid or by bubbling with CO2. By using a 5% CO2 incubator and PBS buffer, a pH of 7.4 was reached after a 4 hour equilibrium dialysis time. The plasma was put on ice until used.
Test compounds and reference compounds spiking solution. 0.5 mM test compounds spiking solution A: 10 μL of 10 mM test compounds stock solution was added to 190 μL DMSO. 0.02 mM spiking solution B: 40 μL of spiking solution A were added to 960 μL of 0.05 mM Sodium phosphate buffer with 0.5% BSA.
The plasma and spiking solution B were pre-warmed at 37° C. for 5 min. 10 μL of pre-warmed spiking solution B was added into the wells designated for all the time points (0, 0.25, 1, 8, 24 h). For 0-min, 400 μL of ACN containing 1S was added to the wells of 0-min plate and then 90 μL of plasma was added. 90 μL of pre-warmed plasma was added into the wells designated for the time points (0.25, 1, 8, 24 h), and start timing. At 0.25, 1, 8, 24 h, 400 μL of ACN containing IS was added to the wells of corresponding plates, respectively, to stop the reaction. After quenching, the plates were shaken on a vibrator (IKA, MTS 2/4) for 10 min (600 rpm/min) and then centrifuged at 5594 g for 15 min (Thermo Multifuge×3R). 50 μL of the supernatant from each well was transferred into a 96-well sample plate containing 50 μL of ultra pure water (Millipore, ZMQS50F01) for LC/MS analysis.

[4] = Solubility of payloads and linker-payloads; details: aqueous DMSO (20%)

Compound: CCCC1O[C@@H]2C[C@H]3[C@@H]4C[C@H](F)C5=CC(=O)C=C[C@]5(C)[C@@]4(F)[C@@H](O)C[C@]3(C)[C@]2(C(=O)COC(=O)c2ccc(CN)cc2)O1 (some centres unmarked) [Compound 105a]
fold less potent than 100 ([1]; EC50 comparison after spacer attachment to 100, text): 2.7 fold

Compound: CCCC1O[C@@H]2C[C@H]3[C@@H]4C[C@H](F)C5=CC(=O)C=C[C@]5(C)[C@@]4(F)[C@@H](O)C[C@]3(C)[C@]2(C(=O)CO)O1 (stereo in doubt) [Compound 100, (1S,2S,4R,8S,9S,11S,12R,13S,19S)-12,19-Difluoro-11-hydroxy-8-(2-hydroxyacetyl)-9,13-dimethyl-6-propyl-5,7-dioxapentacyclo[10.8.0.0^2,^9.0^4,^8.0^13,^18]icosa-14,17-dien-16-one]
fold more potent than 1a (budesonide) ([1]; EC50 comparison): 5.6 fold
fold more potent than Dexamethasone ([1]; EC50 comparison): 5.9 fold
EC50 [1]: 0.0547 nM
S/N [2]: 14.5

Compound: CCCC1O[C@@H]2C[C@H]3[C@@H]4CCC5=CC(=O)C=C[C@]5(C)[C@H]4[C@@H](O)C[C@]3(C)[C@]2(C(=O)COCNC(=O)CN)O1 (stereo partly drawn) [Compound 103a, 2-Amino-N-({2-[(1S,2S,4R,8S,9S,11S,12S,13R)-11-hydroxy-9,13-dimethyl-16-oxo-6-propyl-5,7-dioxapentacyclo[10.8.0.0^2,^9.0^4,^8.0^13,^18]icosa-14,17-dien-8-yl]-2-oxoethoxy}methyl)acetamide]
half-life at 2 µM [3]: 16.8 h
Percent Remaining (%) 0 h [3]: 100.00%
Percent Remaining (%) 1 h [3]: 96.48%
Percent Remaining (%) 8 h [3]: 78.87%
Percent Remaining (%) 24 h [3]: 38.03%
Percent Remaining (%) […] [3]: 107.04%
EC50 [1]: 0.484 nM
EC50 values after spacer attachment relative to parent steroid [1]: comparable to 1a
S/N [2]: 14.6
solubility (physchem): < 20 µg/mL

Compound: CCCC1O[C@@H]2C[C@H]3[C@@H]4C[C@H](F)C5=CC(=O)C=C[C@]5(C)[C@@]4(F)[C@@H](O)C[C@]3(C)[C@]2(C(=O)COCNC(=O)CNC(=O)OCc2ccc(NC(=O)[C@H](CCCNC(N)=O)NC(=O)[C@@H](NC(=O)CCOCCOCCOCCOCCNC(=O)CCC(=O)N3Cc4ccccc4C#Cc4ccccc43)C(C)C)cc2)O1 (some centres unmarked) [LP10]
solubility [4]: < 20 µg/mL

Compound: CCCC1O[C@@H]2C[C@H]3[C@@H]4C[C@H](F)C5=CC(=O)C=C[C@]5(C)[C@@]4(F)[C@@H](O)C[C@]3(C)[C@]2(C(=O)COCNC(=O)CN)O1 (stereo partly drawn) [Compound 103b, 2-Amino-N-({2-[(1S,2S,4R,8S,9S,11S,12R,13S,19S)-12,19-difluoro-11-hydroxy-9,13-dimethyl-16-oxo-6-propyl-5,7-dioxapentacyclo[10.8.0.0^2,^9.0^4,^8.0^13,^18]icosa-14,17-dien-8-yl]-2-oxoethoxy}methyl)acetamide]
EC50 values after spacer attachment relative to parent steroid [1]: comparable to 100
S/N [2]: 16.6
solubility (physchem): < 20 µg/mL

half-life at 2 µM [3]: < 0.25 h
Percent Remaining (%) 0 h [3]: 100.00%
Percent Remaining (%) 1 h [3]: BQL
Percent Remaining (%) 8 h [3]: BQL
Percent Remaining (%) 24 h [3]: BQL
Percent Remaining (%) […] [3]: BQL
Compound: CCN(CC)CCOC(=O)c1ccc(N)cc1 [Procaine]

Compound: CCCC1O[C@@H]2C[C@H]3[C@@H]4CCC5=CC(=O)C=C[C@]5(C)[C@H]4[C@@H](O)C[C@]3(C)[C@]2(C(=O)COCNC(=O)CNC(=O)OCc2ccc(NC(=O)[C@H](CCCNC(N)=O)NC(=O)[C@@H](NC(=O)CCOCCOCCOCCOCCNC(=O)CCC(=O)N3Cc4ccccc4C#Cc4ccccc43)C(C)C)cc2)O1 (some centres unmarked) [LP9]
solubility [4]: < 20 µg/mL

— patent US20250064954A1, “STEROIDS AND ANTIBODY-CONJUGATES THEREOF” (REGENERON PHARMACEUTICALS, INC., priority 2018, published 2025)
